One experiment deals with T1, LmjIPCS (inositol phosphorylceramide synthase from L. major) (Leishmania major, UniProt E9AFX2).
T1 sequence (E9AFX2 1-338): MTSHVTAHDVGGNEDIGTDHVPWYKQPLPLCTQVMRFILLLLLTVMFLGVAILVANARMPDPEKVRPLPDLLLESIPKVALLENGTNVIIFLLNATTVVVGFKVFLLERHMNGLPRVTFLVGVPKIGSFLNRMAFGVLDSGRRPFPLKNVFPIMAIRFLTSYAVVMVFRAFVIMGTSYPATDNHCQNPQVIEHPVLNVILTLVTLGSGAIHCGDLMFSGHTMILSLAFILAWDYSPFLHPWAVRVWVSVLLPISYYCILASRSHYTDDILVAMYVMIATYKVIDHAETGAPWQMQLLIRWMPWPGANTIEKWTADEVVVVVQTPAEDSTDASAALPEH
Nature of the experiment: biochemical.
Conditions: not given
The arrangement: inhibition: dose or concentration left out as unconfirmed. It is filed as biochemical.
In the case of `CCN1CCCC1CNC(=O)c1cc(S(N)(=O)=O)ccc1OC` (centres unmarked) [SULPIRIDE], the “20mM inhibition LmjIPCS” value is listed as 43%.
Same read-out and setting: then `CNC(=N)NCCC[C@H](N)C(=O)O` [TARGININE], with -2%.
With `Cc1scc2c1N(C(=O)CN1CCN(C)CC1)c1ccccc1NC2=O` [TELENZEPINE], the “20mM inhibition LmjIPCS” value was 35%.

The experiment is the same for the next values; noted with them: NINDS set screen, single concentration printed as 20mM.
As to `Nc1ccc(S(=O)(=O)Nc2nccs2)cc1` [SULFATHIAZOLE], the “20mM inhibition LmjIPCS” value was 35%.

Staying with this experiment, now noted: NINDS set screen; read-out: inhibition LmjIPCS.
As usually defined, the inhibition is the change of the read-out against control, counted positive when it falls. Take `O=C(CCCN1CCC2(CC1)C(=O)NCN2c1ccccc1)c1ccc(F)cc1` [SPIPERONE]: the inhibition is -6%.
Turning to `CC(=O)S[C@@H]1CC2=CC(=O)CC[C@]2(C)[C@H]2CC[C@@]3(C)[C@@H](CC[C@@]34CCC(=O)O4)[C@H]12` [SPIRONOLACTONE], the inhibition is -1.06%.
On to `Nc1ccc(S(=O)(=O)NC(=O)c2ccccc2)cc1` [SULFABENZAMIDE], for which the inhibition was -6%.
`Nc1ccc(S(=O)(=O)Nc2ccc(Cl)nn2)cc1` [SULFACHLORPYRIDAZINE]: the inhibition turned out to be 23%.
Still for that read-out and setting: next, `Nc1ccc(S(=O)(=O)Nc2ccnn2-c2ccccc2)cc1` [SULFAPHENAZOLE]: 0.104%; `COC(=O)C(C)c1ccc(C(=O)c2cccs2)cc1` (centres unmarked) [SUPROFEN METHYL ESTER]: -10%.

The experiment is the same for the next values; noted with them: read-out: 20mM inhibition LmjIPCS.
In the case of `CC(=O)N[C@@H](CC(=O)N[C@@H](CCC(=O)O)C(=O)O)C(=O)O` [SPAGLUMIC ACID], the inhibition at 20000 µM came out at 1.82%.
For the compound `CN[C@@H]1[C@H](O)[C@H](NC)[C@H]2O[C@@]3(O)C(=O)C[C@@H](C)O[C@H]3O[C@@H]2[C@H]1O` [SPECTINOMYCIN], the inhibition at 20000 µM came to 19%.
On the same count and under the same terms, then `NCCCCNCCCN` [SPERMIDINE], with 12%; and `O=C1C[C@@H]2OCC=C3CN4CC[C@]56c7ccccc7N1[C@H]5[C@H]2[C@H]3C[C@H]46` [STRYCHNINE], with 3%.
For the compound `CC(=O)NS(=O)(=O)c1ccc(N)cc1` [SULFACETAMIDE], the inhibition at 20000 µM is -1.63%.
For `Nc1ccc(S(=O)(=O)Nc2ncccn2)cc1` [SULFADIAZINE], the inhibition at 20000 µM is 18%.
The same measure, in the same setting: then `[H]/N=C(/N)NS(=O)(=O)c1ccc(N)cc1` [SULFAGUANIDINE], with -1.62%; and `Cc1ccnc(NS(=O)(=O)c2ccc(N)cc2)n1` [SULFAMERAZINE], with 3.51%; and `Nc1ccc(S(N)(=O)=O)cc1` [SULFANILAMIDE], with -1.19%.
As for `Nc1ccc(S(=O)(=O)Nc2ccccn2)cc1` [SULFAPYRIDINE], the inhibition at 20000 µM was -1.38%.
Still for that read-out and setting: then `CC(C(=O)O)c1ccc(C(=O)c2cccs2)cc1` (centres unmarked) [SUPROFEN], with 5%.

Staying with this experiment, now noted: read-out: inhibition LmjIPCS.
In the case of `[H]/N=C(/N)N[C@H]1[C@H](O)[C@@H](O)[C@H](O[C@@H]2O[C@@H](C)[C@](O)(C=O)[C@H]2O[C@@H]2O[C@@H](CO)[C@H](O)[C@@H](O)[C@@H]2NC)[C@@H](N/C(N)=N\[H])[C@@H]1O` [STREPTOMYCIN], the inhibition is -0.116%.
Turning to `COc1cc(NS(=O)(=O)c2ccc(N)cc2)nc(OC)n1` [SULFADIMETHOXINE], the inhibition stood at 15%.
Same read-out and setting: then `Cc1cc(C)nc(NS(=O)(=O)c2ccc(N)cc2)n1` [SULFAMETHAZINE], with 1.49%; and `COc1ccc(NS(=O)(=O)c2ccc(N)cc2)nn1` [SULFAMETHOXYPYRIDAZINE], with -15%; and `O=C(O)c1cc(/N=N/c2ccc(S(=O)(=O)Nc3ccccn3)cc2)ccc1O` [SULFASALAZINE], with 1.8%.
As for `O=C1C(CC[S+]([O-])c2ccccc2)C(=O)N(c2ccccc2)N1c1ccccc1` (centres unmarked) [SULFINPYRAZONE], the inhibition is -6%.
Consider `Cc1noc(NS(=O)(=O)c2ccc(N)cc2)c1C` [SULFISOXAZOLE], for which the inhibition stood at 20%.
Consider `CCCCC1(COC(=O)CCC(=O)O)C(=O)N(c2ccccc2)N(c2ccccc2)C1=O` [SUXIBUZONE], for which the inhibition is 7%.

(Values after article PMC7802075 (ACS Infectious Diseases, 2020).)
